These results are taken from ChEMBL document CHEMBL1201862, “PubChem BioAssay data set” (2004).

Test systems include 786-0; A549; ACHN; CAKI-1; DU-145; HCC 2998; HCT-116; HT-29; M14; MCF7; MDA-N; MOLT-4; NCI/ADR-RES; SF-268; SF-295; SK-MEL-28; SK-MEL-5; SW-620; TK-10; UACC-257.
What all share (test): NCI tumour cell line growth inhibition, 48 h

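1) Cells in 96-well plates. 2) Compound, 48 h, 5 concentrations. 3) Linear interpolation between surrounding doses. 4) Unreached endpoint = highest concentration. GI50 marks 50% less growth.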 Activity calls are given as the source filed them. No stated cut-off is given here; in the data, active = GI50 up to about 1.1 µM and inactive = higher. Bounds are passed on as bounds.

Consider `CCOC(=O)c1cc2cc(N(C(C)=O)C(C)=O)ccc2s1`, for which the GI50 in the assay on 786-0 was 27.2 µM (inactive); in the assay on A549, 36.1 µM (inactive); in the assay with ACHN, 25.2 µM (inactive); in the assay on CAKI-1 it was 39.4 µM (inactive); in the assay with DU-145 it was 23.7 µM (inactive); in the assay on HCC 2998, 35.4 µM (inactive). For the same molecule, the GI50 with HCT-116 is 29.5 µM (inactive); with HT-29, 20 µM (inactive); in the assay on M14, 25.1 µM (inactive); in the assay with MCF7 it was 28.3 µM (inactive); in the assay with MDA-N, 29.2 µM (inactive); with MOLT-4 it was 18.6 µM (inactive). The GI50 in the assay on NCI/ADR-RES is 33.7 µM (inactive); in the assay with SF-268 it was 23.2 µM (inactive); with SF-295, 30.8 µM (inactive); in the assay on SK-MEL-28 it was 30.8 µM (inactive); in the assay on SK-MEL-5, 20.7 µM (inactive); in the assay with SW-620, 36.2 µM (inactive). Besides, the GI50 in the assay with TK-10 is 56.6 µM (inactive); in the assay on UACC-257, 40 µM (inactive).
Take `COc1ccc2c(c1)c1ccc3c(c1n2C)C(=O)C=CC3=O`: the GI50 was 6.78 µM (inactive) in the assay with 786-0; 29 µM (inactive) in the assay on A549; 6.24 µM (inactive) in the assay on ACHN; 8.26 µM (inactive) in the assay on CAKI-1; 9.77 µM (inactive) in the assay with DU-145; 17.9 µM (inactive) with HCC 2998. Further, the GI50 in the assay with HCT-116 was 5.42 µM (inactive); with HT-29 it was 14 µM (inactive); in the assay on M14, 10.4 µM (inactive); with MCF7, 2.45 µM (inactive); in the assay with MDA-N it was 8.91 µM (inactive); in the assay on MOLT-4, 0.834 µM (active). The GI50 in the assay with NCI/ADR-RES was 5.79 µM (inactive); in the assay on SF-268, 15 µM (inactive); in the assay with SF-295 it was 24.3 µM (inactive); with SK-MEL-28, 9.55 µM (inactive); in the assay on SK-MEL-5, 19.3 µM (inactive); with SW-620, 4.1 µM (inactive). Besides, the results for the GI50 with TK-10 and in the assay with UACC-257 were 7.76 µM (inactive) and 10.9 µM (inactive), respectively.
Turning to `COc1cc(/C=C2\C(=O)N(c3cccc(Cl)c3)C(c3ccccc3)S2(=O)=O)cc(OC)c1OC` (stereo not given), the GI50 in the assay with 786-0 is 42.2 µM (inactive); in the assay with A549, 70.8 µM (inactive); in the assay on ACHN, 76.7 µM (inactive); in the assay with CAKI-1, > 100 µM (inactive); in the assay on DU-145, > 100 µM (inactive); with HCC 2998 it was > 100 µM (inactive). In addition, the GI50 with HCT-116 is 24.1 µM (inactive); in the assay on HT-29 it was > 100 µM (inactive); in the assay on M14, 31.3 µM (inactive); in the assay on MCF7, 33.9 µM (inactive); in the assay on MDA-N it was 20.8 µM (inactive); with MOLT-4, 23.9 µM (inactive). In addition, the GI50 with NCI/ADR-RES was 38.1 µM (inactive); in the assay on SF-268, 55.8 µM (inactive); with SF-295 it was 36.4 µM (inactive); with SK-MEL-28 it was 69.2 µM (inactive); in the assay with SK-MEL-5, 39.2 µM (inactive); in the assay with SW-620, 59.7 µM (inactive). Besides, the GI50 with TK-10 is > 100 µM (inactive); in the assay with UACC-257 it was 76 µM (inactive).
For `COc1cccc(Nc2nc(NNC(=O)Cc3ccccc3)nc(NNC(=O)c3ccncc3)n2)c1`, the GI50 is > 10 µM (inactive) in the assay on 786-0; > 10 µM (inactive) in the assay with A549; > 100 µM (inactive) in the assay on ACHN; > 10 µM (inactive) with CAKI-1; > 10 µM (inactive) in the assay with DU-145; > 10 µM (inactive) in the assay on HCC 2998. For the same molecule, the GI50 in the assay with HCT-116 is > 100 µM (inactive); in the assay with HT-29, > 100 µM (inactive); in the assay with M14, 79.4 µM (inactive); with MCF7, > 10 µM (inactive); in the assay on MDA-N, > 10 µM (inactive); in the assay on MOLT-4, 78.7 µM (inactive). Moreover, the GI50 in the assay with NCI/ADR-RES is > 10 µM (inactive); in the assay with SF-268 it was > 10 µM (inactive); in the assay with SF-295 it was > 100 µM (inactive); in the assay on SK-MEL-28 it was > 100 µM (inactive); in the assay with SK-MEL-5, > 10 µM (inactive); with SW-620, 78.2 µM (inactive). Besides, the GI50 with TK-10 and in the assay with UACC-257 was > 10 µM (inactive) throughout.
As for `CC(=O)NN(c1ccccc1)C1CCN(c2ccccc2)N1C(C)=O` (stereo not given), the GI50 in the assay with 786-0 was > 10 µM (inactive); in the assay with A549, > 10 µM (inactive); in the assay on ACHN it was 2.82 µM (inactive); in the assay with CAKI-1, 4.12 µM (inactive); in the assay on DU-145 it was > 10 µM (inactive); in the assay on HCC 2998, 3.82 µM (inactive). Besides, the GI50 with HCT-116 was 9.84 µM (inactive); in the assay with HT-29, 5.74 µM (inactive); in the assay with M14 it was > 10 µM (inactive); with MCF7 it was 8.91 µM (inactive); in the assay with MDA-N it was 9.16 µM (inactive); with MOLT-4, 4.74 µM (inactive). Also, the GI50 with NCI/ADR-RES was 5.52 µM (inactive); in the assay with SF-268, 5.07 µM (inactive); in the assay with SF-295, 3.5 µM (inactive); in the assay on SK-MEL-28, > 10 µM (inactive); with SK-MEL-5 it was > 10 µM (inactive); in the assay on SW-620, 0.889 µM (active). The GI50 in the assay with TK-10 and in the assay on UACC-257 was > 10 µM (inactive) throughout.
Turning to `S=C1SC(c2ccc(Cl)cc2)(c2ccc(Cl)cc2)c2ccccc21`, the GI50 with 786-0 was > 100 µM (inactive); in the assay with A549, 77.6 µM (inactive); with ACHN, > 100 µM (inactive); with CAKI-1 it was 53.8 µM (inactive); in the assay on DU-145, 55.1 µM (inactive); in the assay with HCC 2998, 59.8 µM (inactive). For the same molecule, the GI50 in the assay on HCT-116 was 24.7 µM (inactive); with HT-29, 28 µM (inactive); in the assay with M14 it was 79.4 µM (inactive); in the assay with MCF7, 38.5 µM (inactive); with MDA-N, 62.2 µM (inactive); in the assay with MOLT-4, 37.2 µM (inactive). Further, the GI50 in the assay on NCI/ADR-RES was > 100 µM (inactive); with SF-268 it was 95.1 µM (inactive); in the assay on SF-295, 53.7 µM (inactive); with SK-MEL-28 it was 67.8 µM (inactive); with SK-MEL-5, 64 µM (inactive); in the assay with SW-620, 68.7 µM (inactive). In addition, the GI50 is > 100 µM (inactive) in the assay on TK-10 and 31 µM (inactive) in the assay on UACC-257.
`CC(=O)O[C@H]1C[C@H](O[C@H]2[C@@H](O)C[C@H](O[C@H]3[C@@H](O)C[C@H](O[C@H]4CC[C@@]5(C)[C@H](CC[C@@H]6[C@@H]5C[C@@H](O)[C@]5(C)[C@@H](C7=CC(=O)OC7)CC[C@]65O)C4)O[C@@H]3C)O[C@@H]2C)O[C@H](C)[C@H]1O[C@@H]1O[C@H](CO)[C@@H](O)[C@H](O)[C@H]1O` [LANATOSIDE C]: the GI50 in the assay on 786-0 was 0.0322 µM (active); in the assay on A549 it was 0.0146 µM (active); in the assay with ACHN, 0.0283 µM (active); with CAKI-1, 0.0336 µM (active); with DU-145, 0.0313 µM (active); with HCC 2998, 0.148 µM (active). Also, the GI50 in the assay with HCT-116 is 0.0324 µM (active); with HT-29, 0.048 µM (active); in the assay with M14 it was 0.147 µM (active); with MCF7, 0.051 µM (active); in the assay on MDA-N, 0.156 µM (active); with MOLT-4, 0.018 µM (active). The GI50 with NCI/ADR-RES is 0.0364 µM (active); in the assay on SF-268, 0.0436 µM (active); in the assay with SF-295, 0.0426 µM (active); in the assay with SK-MEL-28 it was 0.303 µM (active); in the assay on SK-MEL-5, 0.0465 µM (active); with SW-620, 0.0536 µM (active). In addition, the GI50 with TK-10 is 0.0454 µM (active); in the assay on UACC-257, 0.238 µM (active).
